Test results reported in patent publication US20090018317A1, “Reactive dyestuffs with alkylthio group and beta-sulfatoethysulfone group” (Everlight USA, Inc., priority 2007, published 2009).

Test: Alkali-resistant solubility test (filtration of dyestuff in alkali solution)
Assay type: physicochemical
Conditions: aqueous alkali solution (Na2SiO2 and NaOH), aqueous buffer; Na2SiO2 50°Be′ = 100 g/L, NaOH 38°Be′ = 30 ml/L; filtered through No. 1 filter paper
Method: First, the dyestuffs of the formula (A) and the formula (1), taken with proper amounts in accordance to a preliminary test, are respectively dissolved in water. The alkali solution including 100 g/L 50°Be′ Na2SiO2 and 30 ml/L 38°Be′ NaOH is added therein, respectively. The mixture samples respectively are filtered through the No. 1 filter paper of Toyo Rosh Kaisha, Ltd. in order to estimate how many solids are residual and then to determine the alkali-resistant solubility.

CCN(c1cccc(S(=O)(=O)CCOS(=O)(=O)O)c1)c1nc(Nc2cc(S(=O)(=O)O)cc3c2[O][Cu-]24[O]C(=O)c5ccc(S(=O)(=O)O)cc5[N]2N=C(c2ccccc2)N=[N+]34)nc(SCC(=O)O)n1 (stereo not shown) [formula (1)]
solubility: > 70 mg/mL
